{"source": "ChEMBL document CHEMBL6153137", "about": "“Design, Synthesis, and Biological Evaluation of Novel Orally Available Covalent CDK12/13 Dual Inhibitors for the Treatment of Tumors” (J Med Chem, 2025)", "key": {"[1]": {"assay": "Half-life in Balb/c mouse xenografted with human MV4-11 cells at 30 mg/kg, po administered once daily via gavage", "assay_type": "ADME, organism-based", "details": "in vivo"}, "SUM149PT [2]": {"test_system": "SUM149PT", "assay": "Antiproliferative activity against human SUM149PT cells assessed as inhibition of cell growth incubated for 7 days by CellTiter-Glo reagent based luminescence analysis", "assay_type": "functional", "details": "168 h"}, "[3]": {"target": "CDK12/Cyclin K (Homo sapiens) (UniProt O75909+Q9NYV4)", "sequence (O75909 whole entry, looked up)": "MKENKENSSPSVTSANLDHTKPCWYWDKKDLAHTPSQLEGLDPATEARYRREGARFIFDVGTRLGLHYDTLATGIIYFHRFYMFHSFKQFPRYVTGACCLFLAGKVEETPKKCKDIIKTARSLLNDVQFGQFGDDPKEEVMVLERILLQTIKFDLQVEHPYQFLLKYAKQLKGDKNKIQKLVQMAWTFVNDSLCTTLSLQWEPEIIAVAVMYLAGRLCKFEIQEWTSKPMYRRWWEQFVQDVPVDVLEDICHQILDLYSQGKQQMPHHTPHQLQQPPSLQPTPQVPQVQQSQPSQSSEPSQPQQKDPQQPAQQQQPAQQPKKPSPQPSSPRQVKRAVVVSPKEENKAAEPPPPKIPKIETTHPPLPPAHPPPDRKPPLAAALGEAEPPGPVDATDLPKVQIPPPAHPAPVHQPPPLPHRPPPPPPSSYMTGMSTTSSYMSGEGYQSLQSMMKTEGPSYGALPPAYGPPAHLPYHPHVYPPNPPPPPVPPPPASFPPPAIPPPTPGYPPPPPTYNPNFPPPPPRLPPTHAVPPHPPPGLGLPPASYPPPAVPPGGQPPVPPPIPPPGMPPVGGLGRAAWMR", "sequence (Q9NYV4 whole entry, looked up)": "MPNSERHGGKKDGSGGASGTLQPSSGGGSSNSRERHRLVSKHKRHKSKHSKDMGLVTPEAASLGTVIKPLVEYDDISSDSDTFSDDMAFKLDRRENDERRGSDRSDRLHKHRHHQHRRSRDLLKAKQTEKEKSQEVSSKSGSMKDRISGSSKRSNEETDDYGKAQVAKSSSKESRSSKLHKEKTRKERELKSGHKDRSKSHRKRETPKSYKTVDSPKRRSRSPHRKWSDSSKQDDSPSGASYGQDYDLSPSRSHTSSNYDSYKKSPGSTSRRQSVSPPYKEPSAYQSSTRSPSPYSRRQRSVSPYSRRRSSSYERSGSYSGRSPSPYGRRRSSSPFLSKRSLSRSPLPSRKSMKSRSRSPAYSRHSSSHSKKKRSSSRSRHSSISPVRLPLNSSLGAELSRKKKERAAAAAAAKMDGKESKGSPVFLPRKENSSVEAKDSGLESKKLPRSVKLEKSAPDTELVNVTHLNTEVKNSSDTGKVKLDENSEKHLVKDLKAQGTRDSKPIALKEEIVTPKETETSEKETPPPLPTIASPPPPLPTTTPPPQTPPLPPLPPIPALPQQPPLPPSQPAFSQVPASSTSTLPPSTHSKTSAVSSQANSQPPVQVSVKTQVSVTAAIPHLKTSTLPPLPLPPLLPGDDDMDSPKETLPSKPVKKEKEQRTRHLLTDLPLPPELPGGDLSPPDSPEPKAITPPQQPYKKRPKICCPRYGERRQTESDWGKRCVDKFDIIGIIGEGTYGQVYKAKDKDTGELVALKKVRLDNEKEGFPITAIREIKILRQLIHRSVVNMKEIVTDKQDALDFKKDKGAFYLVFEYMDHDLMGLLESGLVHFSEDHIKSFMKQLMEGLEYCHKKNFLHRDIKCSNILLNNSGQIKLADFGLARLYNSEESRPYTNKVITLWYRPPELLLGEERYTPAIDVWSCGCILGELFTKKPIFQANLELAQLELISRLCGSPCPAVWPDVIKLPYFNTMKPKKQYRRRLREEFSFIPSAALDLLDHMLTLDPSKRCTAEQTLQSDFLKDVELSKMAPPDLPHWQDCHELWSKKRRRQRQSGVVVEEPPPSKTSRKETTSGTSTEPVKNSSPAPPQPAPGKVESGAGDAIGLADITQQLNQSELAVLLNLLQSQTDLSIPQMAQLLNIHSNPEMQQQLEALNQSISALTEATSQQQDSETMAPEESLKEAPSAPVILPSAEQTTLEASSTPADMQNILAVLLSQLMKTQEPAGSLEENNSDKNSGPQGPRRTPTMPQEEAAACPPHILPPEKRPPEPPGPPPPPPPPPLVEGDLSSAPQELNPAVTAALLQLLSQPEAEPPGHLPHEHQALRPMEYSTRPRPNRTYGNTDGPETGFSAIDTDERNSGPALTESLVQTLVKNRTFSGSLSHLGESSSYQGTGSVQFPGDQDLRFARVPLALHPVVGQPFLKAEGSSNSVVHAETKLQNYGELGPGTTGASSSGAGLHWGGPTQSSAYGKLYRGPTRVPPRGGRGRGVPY", "assay": "Irreversible covalent binding affinity to CDK12/CyclinK (unknown origin) at Cys1039 residue assessed as 1:1 complex formation at 5 uM measured after 3 hrs by peptide mapping based mass spectrometric analysis", "assay_type": "protein-complex assay"}, "HCT-116": {"test_system": "HCT-116", "assay": "Antiproliferative activity against PARG KO human HCT-116 cells assessed as reduction in cell viability incubated for 7 days by CellTiter-Glo reagent based luminescence analysis", "assay_type": "functional", "details": "HCT-116, 168 h"}, "MDA-MB-231": {"test_system": "MDA-MB-231", "assay": "Antiproliferative activity against human MDA-MB-231 cells assessed as reduction in cell viability incubated for 7 days by CellTiter-Glo reagent based luminescence analysis", "assay_type": "functional", "details": "MDA-MB-231, 168 h"}, "[4]": {"target": "CDK7/Cyclin H/MNAT1 (Homo sapiens) (UniProt P51946+P50613+P51948)", "assay": "Inhibition of human recombinant N-terminal 6X His-tagged CDK7/CCNH/N-terminal 6X His-tagged MNAT1 expressed in HEP Sf9 cells using ATP as substrate at 2 uM measured after 60 mins by ADP-Glo reagent based luminescence assay"}, "[5]": {"target": "CDK1/Cyclin A (Homo sapiens) (UniProt P06493+P20248)", "sequence (P06493 whole entry, looked up)": "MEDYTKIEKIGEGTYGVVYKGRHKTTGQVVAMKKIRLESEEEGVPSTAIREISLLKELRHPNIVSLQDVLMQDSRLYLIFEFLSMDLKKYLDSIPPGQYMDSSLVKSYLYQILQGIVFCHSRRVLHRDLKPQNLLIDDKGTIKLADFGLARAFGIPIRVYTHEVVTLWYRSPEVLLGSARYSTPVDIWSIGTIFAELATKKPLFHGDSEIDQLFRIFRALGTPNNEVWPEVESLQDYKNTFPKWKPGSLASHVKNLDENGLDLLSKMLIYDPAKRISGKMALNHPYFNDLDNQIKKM", "sequence (P20248 whole entry, looked up)": "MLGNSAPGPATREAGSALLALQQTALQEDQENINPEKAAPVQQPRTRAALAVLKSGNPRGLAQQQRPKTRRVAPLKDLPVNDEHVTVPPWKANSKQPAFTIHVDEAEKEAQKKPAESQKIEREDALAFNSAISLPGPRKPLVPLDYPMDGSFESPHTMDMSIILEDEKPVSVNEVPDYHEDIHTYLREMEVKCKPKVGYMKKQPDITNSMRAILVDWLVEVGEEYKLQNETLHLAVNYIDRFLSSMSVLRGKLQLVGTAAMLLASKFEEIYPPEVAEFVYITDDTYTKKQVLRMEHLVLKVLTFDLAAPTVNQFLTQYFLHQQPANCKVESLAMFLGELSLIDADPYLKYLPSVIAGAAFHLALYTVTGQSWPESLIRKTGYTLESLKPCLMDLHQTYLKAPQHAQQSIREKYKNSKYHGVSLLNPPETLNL", "assay": "Inhibition of human recombinant N-terminal GST-tagged CDK1/N-terminal GST-tagged and C-terminal 8X His-tagged Cyclin A2 expressed in HEP Sf9 cells using ATP as substrate at 2 uM measured after 60 mins by ADP-Glo reagent based luminescence analysis"}, "[6]": {"target": "CDK2/Cyclin A2 (Homo sapiens) (UniProt P24941+P20248)", "assay": "Inhibition of human recombinat N-terminal GST-tagged CDK2/C-terminal 8X His-tagged Cyclin A2 expressed in HEP Sf9 cells using ATP as substrate at 2 uM measured after 60 mins by ADP-Glo reagent based luminescence analysis"}, "CDK7/Cyclin H/MNAT1": {"target": "CDK7/Cyclin H/MNAT1 (Homo sapiens, UniProt P50613)", "sequence (P51946 whole entry)": "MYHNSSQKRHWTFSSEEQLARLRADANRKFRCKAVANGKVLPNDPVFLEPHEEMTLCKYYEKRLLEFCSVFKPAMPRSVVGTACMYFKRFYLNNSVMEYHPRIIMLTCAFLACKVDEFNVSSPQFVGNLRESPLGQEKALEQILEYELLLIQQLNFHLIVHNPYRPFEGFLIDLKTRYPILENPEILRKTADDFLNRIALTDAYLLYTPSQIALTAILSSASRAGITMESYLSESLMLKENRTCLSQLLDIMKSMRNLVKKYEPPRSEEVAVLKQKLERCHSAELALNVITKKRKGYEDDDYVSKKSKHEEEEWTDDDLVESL", "sequence (P50613 whole entry)": "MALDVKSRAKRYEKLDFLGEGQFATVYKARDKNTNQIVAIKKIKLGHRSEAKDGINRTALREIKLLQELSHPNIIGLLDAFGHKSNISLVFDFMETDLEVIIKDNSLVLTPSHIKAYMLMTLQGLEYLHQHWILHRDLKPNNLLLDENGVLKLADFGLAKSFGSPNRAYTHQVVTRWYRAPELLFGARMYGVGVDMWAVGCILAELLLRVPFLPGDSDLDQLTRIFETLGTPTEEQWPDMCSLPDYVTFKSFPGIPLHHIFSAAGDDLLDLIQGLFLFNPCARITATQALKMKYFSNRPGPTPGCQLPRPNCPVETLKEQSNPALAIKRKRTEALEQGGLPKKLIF", "sequence (P51948 whole entry, further chain)": "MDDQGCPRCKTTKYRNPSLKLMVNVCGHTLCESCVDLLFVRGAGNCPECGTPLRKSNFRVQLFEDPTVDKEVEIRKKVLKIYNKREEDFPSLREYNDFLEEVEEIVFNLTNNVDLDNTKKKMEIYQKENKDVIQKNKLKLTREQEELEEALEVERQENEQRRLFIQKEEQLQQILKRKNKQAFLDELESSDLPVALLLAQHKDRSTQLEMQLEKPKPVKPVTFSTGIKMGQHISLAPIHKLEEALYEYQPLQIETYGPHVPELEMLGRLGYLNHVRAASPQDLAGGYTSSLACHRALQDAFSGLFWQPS", "assay": "Inhibition of human recombinant N-terminal 6X His-tagged CDK7/CCNH/N-terminal 6X His-tagged MNAT1 expressed in HEP Sf9 cells using ATP as substrate measured after 60 mins by ADP-Glo reagent based luminescence assay"}, "[7]": {"assay": "Half-life of the compound in human Plasma", "assay_type": "ADME, cell-free"}, "Cytochrome P450 2C9": {"target": "Cytochrome P450 2C9 (Homo sapiens, UniProt P11712)", "sequence (P11712 whole entry)": "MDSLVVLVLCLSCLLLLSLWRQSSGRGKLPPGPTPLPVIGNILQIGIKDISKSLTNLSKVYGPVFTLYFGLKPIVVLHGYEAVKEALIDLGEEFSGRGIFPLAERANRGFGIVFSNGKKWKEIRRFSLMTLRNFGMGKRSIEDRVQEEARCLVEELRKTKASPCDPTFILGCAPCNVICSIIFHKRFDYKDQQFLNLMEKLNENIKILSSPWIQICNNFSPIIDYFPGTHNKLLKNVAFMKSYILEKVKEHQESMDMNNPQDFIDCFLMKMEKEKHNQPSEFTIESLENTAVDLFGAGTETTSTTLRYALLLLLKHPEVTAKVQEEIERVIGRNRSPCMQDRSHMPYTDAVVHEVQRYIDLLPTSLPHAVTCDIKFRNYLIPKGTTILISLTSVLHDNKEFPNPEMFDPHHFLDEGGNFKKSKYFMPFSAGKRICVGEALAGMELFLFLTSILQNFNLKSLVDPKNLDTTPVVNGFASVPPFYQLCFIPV", "assay": "Inhibition of CYP2C9 in human liver microsomes assessed as inhibition of diclofenac-4-hydroxylation incubated for 10 mins in presence of NADPH by LC-MS/MS analysis", "assay_type": "ADME, Microsome"}, "[8]": {"assay": "Ratio of drug level in tumor to plasma in Balb/c mouse xenografted with human SUM149PT cells at 30 mg/kg, po administered via gavage and measured after 2 hrs", "assay_type": "ADME, organism-based"}, "SUM149PT [9]": {"test_system": "SUM149PT", "assay": "Antitumor activity against human SUM149PT cells xenografted in Balb/c mouse assessed as inhibition of tumor growth at 60 mg/kg, po administered once daily via gavage and measured on day 20", "assay_type": "functional", "details": "480 h, time 20 day, read-out: TGI"}, "MV4-11": {"test_system": "MV4-11", "assay": "Antitumor activity against human MV4-11 cells xenografted in Balb/c nude mouse assessed as inhibition of tumor growth at 30 mg/kg, po administered once daily via gavage and measured on day 21", "assay_type": "functional", "details": "MV4-11, 504 h, time 21 day, read-out: TGI"}, "[10]": {"assay": "AUC in Balb/c mouse xenografted with human MV4-11 cells at 30 mg/kg, po administered once daily via gavage", "assay_type": "ADME, organism-based", "details": "in vivo"}, "Mus musculus": {"test_system": "Mus musculus", "assay": "In vivo inhibition of CDK7 in Balb/c mouse xenografted with human SUM149PT cells assessed as reduction in phosphorylation of Ser5 on RNA Pol II at 15 to 30 mg/kg, po administered once daily via gavage and measured at 4 hrs post-last drug dosage by western blot analysis", "assay_type": "functional, organism-based", "details": "dose 15-30 mg/kg"}, "[11]": {"assay": "Half life in Sprague-Dawley rat at 5 mg/kg, po measured for 24 hrs by LC-MS/MS analysis", "assay_type": "ADME, organism-based", "details": "in vivo"}, "[12]": {"assay": "Half life in Sprague-Dawley rat at 15 mg/kg, po measured for 24 hrs by LC-MS/MS analysis", "assay_type": "ADME, organism-based", "details": "in vivo"}, "[13]": {"assay": "Cmax in Sprague-Dawley rat at 15 mg/kg, po measured for 24 hrs by LC-MS/MS analysis", "assay_type": "ADME, organism-based", "details": "in vivo"}, "[14]": {"assay": "Toxicity against Sprague-Dawley rat assessed as abnormalities at 1 mg/kg, iv measured for 24 hrs", "assay_type": "organism-based", "details": "in vivo"}, "[15]": {"assay": "Toxicity against female Sprague-Dawley rat assessed as effect on hemoglobin level at 7.5 to 30 mg/kg, po administered once daily via gavage for 28 days and measured on day 29", "assay_type": "organism-based", "details": "in vivo, 696 h, dose 7.5-30 mg/kg, time 29 day"}, "[16]": {"assay": "Toxicity against female Sprague-Dawley rat assessed as effect on hematocrit level at 7.5 to 30 mg/kg, po administered once daily via gavage for 28 days and measured on day 29", "assay_type": "organism-based", "details": "in vivo, 696 h, dose 7.5-30 mg/kg, time 29 day"}, "[17]": {"assay": "Toxicity against female Sprague-Dawley rat assessed as effect on mean corpuscular hemoglobin at 7.5 to 30 mg/kg, po administered once daily via gavage for 28 days and measured on day 29", "assay_type": "organism-based", "details": "in vivo, 696 h, dose 7.5-30 mg/kg, time 29 day"}, "[18]": {"assay": "Toxicity against female Sprague-Dawley rat assessed as effect on creatinine level in blood at 7.5 to 30 mg/kg, po administered once daily via gavage for 28 days and measured on day 29", "assay_type": "organism-based", "details": "in vivo, 696 h, dose 7.5-30 mg/kg, time 29 day"}, "[19]": {"assay": "Toxicity against female Sprague-Dawley rat assessed as effect on chlorine level in blood at 7.5 to 30 mg/kg, po administered once daily via gavage for 28 days and measured on day 29", "assay_type": "organism-based", "details": "in vivo, 696 h, dose 7.5-30 mg/kg, time 29 day"}, "[20]": {"assay": "Toxicity against male Sprague-Dawley rat assessed as decrease in thymus volume at 10 to 40 mg/kg, po administered once daily via gavage for 28 days and measured on day 29", "assay_type": "organism-based", "details": "in vivo, 696 h, dose 10-40 mg/kg, time 29 day"}, "[21]": {"assay": "Toxicity against female Sprague-Dawley rat assessed as decrease in thymus weight at 7.5 to 30 mg/kg, po administered once daily via gavage for 28 days and measured on day 29", "assay_type": "organism-based", "details": "in vivo, 696 h, dose 7.5-30 mg/kg, time 29 day"}, "[22]": {"assay": "Half life in female Sprague-Dawley rat at 15 mg/kg, po administered via gavage and measured on day 1", "assay_type": "ADME, organism-based", "details": "in vivo, time 1 day"}, "[23]": {"assay": "Half life in female Sprague-Dawley rat at 30 mg/kg, po administered once daily via gavage for 28 days", "assay_type": "ADME, organism-based", "details": "in vivo, time 28 day"}, "[24]": {"assay": "Cmax in male Sprague-Dawley rat at 10 mg/kg, po administered once daily via gavage for 28 days", "assay_type": "ADME, organism-based", "details": "in vivo, time 28 day"}, "[25]": {"assay": "Cmax in female Sprague-Dawley rat at 7.5 mg/kg, po administered once daily via gavage for 28 days", "assay_type": "ADME, organism-based", "details": "in vivo, time 28 day"}, "[26]": {"assay": "AUC(0 to t) in male Sprague-Dawley rat at 20 mg/kg, po administered once daily via gavage for 28 days", "assay_type": "ADME, organism-based", "details": "in vivo, 672 h, time 28 day"}, "[27]": {"assay": "AUC(0 to t) in female Sprague-Dawley rat at 30 mg/kg, po administered once daily via gavage for 28 days", "assay_type": "ADME, organism-based", "details": "in vivo, 672 h, time 28 day"}}, "note": "Activity calls are given as the source filed them. The calls are words filed in the database; no cut-off is given here."}
{"smiles": "C=CC(=O)N1CCc2c(ncnc2N2CC[C@@H](Nc3ncc(Cl)c(OC)n3)C2)C1", "values": [{"measurement": "half-life", "setting": "[1]", "value": 70.2, "unit": "min"}, {"measurement": "IC50", "setting": "SUM149PT [2]", "value": 160, "unit": "nM"}, {"measurement": "Activity", "setting": "[3]", "value": "Active"}, {"measurement": "IC50", "setting": "HCT-116", "value": 123, "unit": "nM"}, {"measurement": "IC50", "setting": "MDA-MB-231", "value": 58, "unit": "nM"}, {"measurement": "inhibition", "setting": "[4]", "value": 94, "unit": "%"}, {"measurement": "inhibition", "setting": "[5]", "value": 10, "unit": "%"}, {"measurement": "inhibition", "setting": "[6]", "value": 1, "unit": "%"}, {"measurement": "IC50", "setting": "CDK7/Cyclin H/MNAT1", "value": 204, "unit": "nM"}, {"measurement": "half-life", "setting": "[7]", "value": "> 289", "unit": "min"}, {"measurement": "IC50", "setting": "Cytochrome P450 2C9", "value": "> 50", "unit": "µM"}, {"measurement": "Kp at 2 h", "setting": "[8]", "value": 0.38}, {"measurement": "inhibition in vivo at 60 mg/kg", "setting": "SUM149PT [9]", "value": 114, "unit": "%"}, {"measurement": "inhibition in vivo at 30 mg/kg", "setting": "MV4-11", "value": 95, "unit": "%"}, {"measurement": "AUC", "setting": "[10]", "value": 4190, "unit": "ng·h/mL"}, {"measurement": "inhibition", "setting": "Mus musculus", "value": "inactive"}, {"measurement": "half-life", "setting": "[11]", "value": 48, "unit": "min"}, {"measurement": "half-life", "setting": "[12]", "value": 109, "unit": "min"}, {"measurement": "Cmax", "setting": "[13]", "value": 797, "unit": "ng/mL"}, {"measurement": "Activity", "setting": "[14]", "value": "Non-toxic"}, {"measurement": "Activity", "setting": "[15]", "value": "Non-toxic"}, {"measurement": "Activity", "setting": "[16]", "value": "Non-toxic"}, {"measurement": "Activity", "setting": "[17]", "value": "Non-toxic"}, {"measurement": "Activity", "setting": "[18]", "value": "Non-toxic"}, {"measurement": "Activity", "setting": "[19]", "value": "Non-toxic"}, {"measurement": "Activity", "setting": "[20]", "value": "Toxic"}, {"measurement": "Activity", "setting": "[21]", "value": "Toxic"}, {"measurement": "half-life", "setting": "[22]", "value": 222, "unit": "min"}, {"measurement": "half-life", "setting": "[23]", "value": 270, "unit": "min"}, {"measurement": "Cmax", "setting": "[24]", "value": 576, "unit": "ng/mL"}, {"measurement": "Cmax", "setting": "[25]", "value": 800, "unit": "ng/mL"}, {"measurement": "AUCt", "setting": "[26]", "value": 2870, "unit": "ng·h/mL"}, {"measurement": "AUCt", "setting": "[27]", "value": 7860, "unit": "ng·h/mL"}]}
